# According to ChEMBL document CHEMBL5505990, “Novel aroyl guanidine anti-trypanosomal compounds that exert opposing effects on parasite energy metabolism” (Eur J Med Chem, 2024):
# pIC50: −log10 of the molar value. The source made the active and inactive calls. The calls are words filed in the database; no cut-off is given here.
# Assays:
# [1] = test system: Trypanosoma brucei brucei; experiment: Anti-trypanosomal activity against Trypanosoma brucei brucei; type: functional, organism-based
# [2] = Cytotoxicity against HEK293 cells assessed as inhibition of cell viability at 83 uM relative to control; type: toxicity, cell-based; settings: human, read-out: INH
# [3] = test system: Trypanosoma brucei brucei; experiment: Anti-trypanosomal activity against Trypanosoma brucei brucei at 10 uM relative to control; type: functional
# [4] = Selectivity ratio of IC50 for HEK293 cells to IC50 for Trypanosoma brucei brucei; type: toxicity; settings: human, read-out: Ratio IC50
# [5] = Cytotoxicity against HEK293 cells; type: toxicity, cell-based; settings: human
# [6] = test system: Trypanosoma brucei brucei; experiment: Disruption of nucleotide metabolism in bloodstream Trypanosoma brucei brucei 427 assessed as depletion of ATP at 1 uM incubated for 5 hrs; type: functional, organism-based
# [7] = test system: Trypanosoma brucei brucei; experiment: Disruption of nucleotide metabolism in bloodstream Trypanosoma brucei brucei 427 assessed as depletion of GTP at 1 uM incubated for 5 hrs; type: functional, organism-based
# [8] = test system: Trypanosoma brucei brucei; experiment: Disruption of nucleotide metabolism in bloodstream Trypanosoma brucei brucei 427 assessed as depletion of UTP at 1 uM incubated for 5 hrs; type: functional, organism-based
# [9] = test system: Trypanosoma brucei brucei; experiment: Disruption of nucleotide metabolism in bloodstream Trypanosoma brucei brucei 427 assessed as depletion of CTP at 1 uM incubated for 5 hrs; type: functional, organism-based
# [10] = test system: Trypanosoma brucei brucei; experiment: Disruption of nucleotide metabolism in bloodstream Trypanosoma brucei brucei 427 assessed as depletion of deoxy-ATP at 1 uM incubated for 5 hrs; type: functional, organism-based
# [11] = test system: Trypanosoma brucei brucei; experiment: Disruption of nucleotide metabolism in bloodstream Trypanosoma brucei brucei 427 assessed as depletion of deoxy-GTP at 1 uM incubated for 5 hrs; type: functional, organism-based
# [12] = test system: Trypanosoma brucei brucei; experiment: Disruption of nucleotide metabolism in bloodstream Trypanosoma brucei brucei 427 assessed as depletion of deoxy-UTP at 1 uM incubated for 5 hrs; type: functional, organism-based
# [13] = test system: Trypanosoma brucei brucei; experiment: Disruption of nucleotide metabolism in bloodstream Trypanosoma brucei brucei 427 assessed as depletion of deoxy-CTP at 1 uM incubated for 5 hrs; type: functional, organism-based
# [14] = test system: Trypanosoma brucei brucei; experiment: Disruption of nucleotide metabolism in bloodstream Trypanosoma brucei brucei 427 assessed as accumulation of NDP at 1 uM incubated for 5 hrs; type: functional, organism-based
# [15] = test system: Trypanosoma brucei brucei; experiment: Disruption of nucleotide metabolism in bloodstream Trypanosoma brucei brucei 427 assessed as accumulation of NMP at 1 uM incubated for 5 hrs; type: functional, organism-based
# [16] = test system: Trypanosoma brucei brucei; experiment: Disruption of nucleotide metabolism in bloodstream Trypanosoma brucei brucei 427 assessed as accumulation of nucleosides at 1 uM incubated for 5 hrs; type: functional, organism-based
# [17] = test system: Trypanosoma brucei brucei; experiment: Disruption of nucleotide metabolism in bloodstream Trypanosoma brucei brucei 427 assessed as accumulation of purine/pyrimidine base forms at 1 uM incubated for 5 hrs; type: functional, organism-based
# [18] = test system: Trypanosoma brucei brucei; experiment: Induction of glycolysis in bloodstream Trypanosoma brucei brucei 427 assessed as increase in pyruvate level at 1 uM incubated for 5 hrs; type: functional
# [19] = test system: Trypanosoma brucei brucei; experiment: Induction of glycolysis in bloodstream Trypanosoma brucei brucei 427 assessed as increase in glycerol level at 1 uM incubated for 5 hrs; type: functional
# [20] = test system: Trypanosoma brucei brucei; experiment: Induction of glycolysis in bloodstream Trypanosoma brucei brucei 427 assessed as increase in succinate level at 1 uM incubated for 5 hrs; type: functional
# [21] = test system: Trypanosoma brucei brucei; experiment: Downregulation of 6-phosphogluconate level in bloodstream Trypanosoma brucei brucei 427 assessed as increase in pyruvate level at 1 uM incubated for 5 hrs; type: functional
# [22] = test system: Trypanosoma brucei brucei; experiment: Downregulation of NADPH level in bloodstream Trypanosoma brucei brucei 427 assessed as increase in pyruvate level at 1 uM incubated for 5 hrs; type: functional
# [23] = test system: Trypanosoma brucei brucei; experiment: Upregulation of carnitine to acetyl-carnitine ratio in bloodstream Trypanosoma brucei brucei 427 assessed as increase in pyruvate level at 1 uM incubated for 5 hrs; type: functional
# [24] = test system: Trypanosoma brucei brucei; experiment: Upregulation of glycolytic flux in bloodstream Trypanosoma brucei brucei 427 assessed as increase in pyruvate level at 1 uM incubated for 5 hrs; type: functional
# [25] = test system: Trypanosoma brucei brucei; experiment: Effect on free CoA level in bloodstream Trypanosoma brucei brucei 427 assessed as increase in pyruvate level at 1 uM incubated for 5 hrs; type: functional
# [26] = test system: Trypanosoma brucei brucei; experiment: Effect on free carnitine level in bloodstream Trypanosoma brucei brucei 427 assessed as increase in pyruvate level at 1 uM incubated for 5 hrs; type: functional
# [27] = test system: Trypanosoma brucei brucei; experiment: Effect on acetyl-CoA level in bloodstream Trypanosoma brucei brucei 427 assessed as increase in pyruvate level at 1 uM incubated for 5 hrs; type: functional
# [28] = test system: Trypanosoma brucei brucei; experiment: Effect on palmitoyl-CoA level in bloodstream Trypanosoma brucei brucei 427 assessed as increase in pyruvate level at 1 uM incubated for 5 hrs; type: functional
# [29] = test system: Trypanosoma brucei brucei; experiment: Effect on stearoyl-CoA level in bloodstream Trypanosoma brucei brucei 427 assessed as increase in pyruvate level at 1 uM incubated for 5 hrs; type: functional
# [30] = test system: Trypanosoma brucei brucei; experiment: Effect on acetyl-carnitine level in bloodstream Trypanosoma brucei brucei 427 assessed as increase in pyruvate level at 1 uM incubated for 5 hrs; type: functional
# [31] = test system: Trypanosoma brucei brucei; experiment: Disruption of nucleotide metabolism in bloodstream Trypanosoma brucei brucei 427 assessed as depletion of NTP at 1 uM incubated for 5 hrs; type: functional, organism-based
smiles,measurement,setting,value
CCc1ccccc1/N=C(\NCCN1CCOCC1)NC(=O)c1ccc(F)c(C)c1,pIC50,[1],5.62
same,cytotoxicity at 83 µM,[2],101%
CCCc1ccccc1/N=C(\NCCN1CCOCC1)NC(=O)c1ccccc1,inhibition at 10 µM,[3],72%
same,cytotoxicity at 83 µM,[2],58%
CCc1ccccc1/N=C(\NCCN1CCOCC1)NC(=O)c1ccccc1Cl,pIC50,[1],< 5.00
O=C(N/C(=N/c1ccccc1F)NCCN1CCOCC1)c1ccccc1,pIC50,[1],< 5.00
O=C(N/C(=N/c1ccccc1Cl)NCCN1CCOCC1)c1ccccc1,selectivity ratio,[4],> 11
same,pIC50,[1],5.12
same,pIC50,[5],< 4.08
CCc1ccccc1/N=C(\NCCN1CCN(C)CC1)NC(=O)c1ccccc1,pIC50,[1],< 5.00
CCc1ccccc1/N=C(\NCCN1CCOCC1)NC(=O)c1ccccc1OC,pIC50,[1],< 5.00
CCc1ccccc1/N=C(\NCCCN1CCOCC1)NC(=O)c1ccccc1,pIC50,[1],< 5.00
CCc1ccccc1/N=C(\NCCN1CCCC1)NC(=O)c1ccccc1,pIC50,[1],< 5.00
O=C(N/C(=N/c1ccccc1)NCCN1CCOCC1)c1ccccc1,pIC50,[1],< 5.00
CCc1ccccc1/N=C(\NCCN1CCOCC1)NC(=O)c1ccc(Cl)cc1,selectivity ratio,[4],> 52
same,pIC50,[1],5.80
same,pIC50,[5],< 4.08
N#Cc1ccccc1/N=C(\NCCN1CCOCC1)NC(=O)c1ccccc1,pIC50,[1],< 5.00
O=C(N/C(=N/c1ccccc1C(F)(F)F)NCCN1CCOCC1)c1ccccc1,inhibition at 10 µM,[3],59%
same,cytotoxicity at 83 µM,[2],63%
CCc1ccccc1/N=C(\NCCN1CCOCC1)NC(=O)c1ccc(C(C)C)cc1,pIC50,[1],5.00
same,cytotoxicity at 83 µM,[2],52%
CCc1ccccc1/N=C(\NCCN1CCOCC1)NC(=O)c1cccc(C(C)=O)c1,selectivity ratio,[4],1
same,pIC50,[1],< 4.08
same,pIC50,[5],< 4.08
CCc1ccccc1/N=C(\NCCN1CCOCC1)NC(=O)c1ccc(OC)cc1,selectivity ratio,[4],> 8.8
same,pIC50,[1],5.03
same,pIC50,[5],< 4.08
O=C(N/C(=N/c1ccccc1Br)NCCN1CCOCC1)c1ccccc1,selectivity ratio,[4],> 19
same,pIC50,[1],5.38
same,pIC50,[5],< 4.08
same,Activity,[6],Active
same,Activity,[7],Active
same,Activity,[8],Active
same,Activity,[9],Active
same,Activity,[10],Active
same,Activity,[11],Active
same,Activity,[12],Active
same,Activity,[13],Active
same,Activity,[14],Active
same,Activity,[15],Active
same,Activity,[16],Active
same,Activity,[17],Active
same,Activity,[18],Active
same,Activity,[19],Active
same,Activity,[20],Active
same,Activity,[21],Active
same,Activity,[22],Active
same,Activity,[23],Active
same,Activity,[24],Active
same,Activity,[25],Active
same,Activity,[26],Active
same,Activity,[27],inactive
same,Activity,[28],Active
same,Activity,[29],Active
same,Activity,[30],Active
CCCc1ccc(C(=O)N/C(=N/c2ccccc2CC)NCCN2CCOCC2)cc1,selectivity ratio,[4],> 9
same,pIC50,[1],5.05
same,pIC50,[5],< 4.08
CCc1ccccc1/N=C(\NCCN1CCOCC1)NC(=O)c1cccc(C)c1,selectivity ratio,[4],> 64
same,pIC50,[1],5.89
same,pIC50,[5],< 4.08
CCc1ccccc1/N=C(\NCCN1CCOCC1)NC(=O)c1ccc(F)cc1,selectivity ratio,[4],46
same,pIC50,[1],5.74
same,pIC50,[5],< 4.08
same,Activity,[14],inactive
same,Activity,[15],inactive
same,Activity,[16],inactive
same,Activity,[17],inactive
same,Activity,[31],inactive
same,Activity,[18],inactive
same,Activity,[19],inactive
same,Activity,[20],inactive
same,Activity,[21],inactive
same,Activity,[22],inactive
same,Activity,[23],inactive
same,Activity,[24],inactive
same,Activity,[25],inactive
same,Activity,[26],inactive
same,Activity,[27],Active
same,Activity,[28],inactive
same,Activity,[29],inactive
same,Activity,[30],inactive
CCc1ccccc1/N=C(\NCCN1CCOCC1)NC(=O)c1ccc(Br)cc1,selectivity ratio,[4],> 9.5
same,pIC50,[1],5.06
same,pIC50,[5],< 4.08
CCc1ccccc1/N=C(\NCCN1CCOCC1)NC(=O)c1ccccc1C,pIC50,[1],< 5.00
CC(C)c1ccccc1/N=C(\NCCN1CCOCC1)NC(=O)c1ccccc1,inhibition at 10 µM,[3],75%
same,cytotoxicity at 83 µM,[2],63%
CCc1ccccc1/N=C(\NCCN(C)C)NC(=O)c1ccccc1,pIC50,[1],< 5.00
CCc1ccccc1/N=C(\NCCN1CCOCC1)NC(=O)c1ccccc1F,selectivity ratio,[4],1
same,pIC50,[1],5.15
same,pIC50,[5],< 5.00
CCc1ccccc1/N=C(\NCCN1CCOCC1)NC(=O)c1cccc(OC)c1,selectivity ratio,[4],> 52
same,pIC50,[1],5.80
same,pIC50,[5],< 4.08
CCc1ccccc1/N=C(\NCCN1CCOCC1)NC(=O)c1cccc(O)c1,selectivity ratio,[4],1
same,pIC50,[1],< 4.08
same,pIC50,[5],< 4.08
CCc1ccccc1/N=C(\NCCN1CCOCC1)NC(=O)c1ccc(F)c(F)c1,pIC50,[1],5.74
same,cytotoxicity at 83 µM,[2],86%
same,Activity,[6],Active
same,Activity,[7],Active
same,Activity,[8],Active
same,Activity,[9],Active
same,Activity,[10],Active
same,Activity,[11],Active
same,Activity,[12],Active
same,Activity,[13],Active
same,Activity,[18],Active
same,Activity,[19],Active
same,Activity,[20],Active
same,Activity,[21],Active
same,Activity,[22],Active
same,Activity,[23],Active
same,Activity,[24],Active
same,Activity,[25],Active
same,Activity,[26],Active
same,Activity,[27],inactive
same,Activity,[28],Active
same,Activity,[29],Active
same,Activity,[30],Active
CCc1ccccc1/N=C(\NCCN1CCOCC1)NC(=O)c1ccc(F)c(OC)c1,pIC50,[1],6.12
same,cytotoxicity at 83 µM,[2],94%
CCc1ccccc1/N=C(\NCCN1CCOCC1)NC(=O)c1cccc(F)c1,selectivity ratio,[4],> 52
same,pIC50,[1],5.80
same,pIC50,[5],< 4.08
Cc1ccccc1/N=C(\NCCN1CCOCC1)NC(=O)c1ccccc1,pIC50,[5],< 4.08
same,inhibition at 10 µM,[3],75%
same,Activity,[14],inactive
same,Activity,[15],inactive
same,Activity,[16],inactive
same,Activity,[17],inactive
same,Activity,[31],inactive
same,Activity,[18],inactive
same,Activity,[19],inactive
same,Activity,[20],inactive
same,Activity,[21],inactive
same,Activity,[22],inactive
same,Activity,[23],inactive
same,Activity,[24],inactive
same,Activity,[25],inactive
same,Activity,[26],inactive
same,Activity,[27],Active
same,Activity,[28],inactive
same,Activity,[29],inactive
same,Activity,[30],inactive
CCc1ccccc1/N=C(\NCCN1CCCCC1)NC(=O)c1ccccc1,pIC50,[1],< 5.00
CCc1ccccc1/N=C(\NCCN1CCOCC1)NC(=O)c1ccccc1Br,pIC50,[1],< 5.00
COc1ccccc1/N=C(\NCCN1CCOCC1)NC(=O)c1ccccc1,pIC50,[1],< 5.00
